From ChEMBL document CHEMBL3045308, “Design and synthesis of novel pyrethriods containing eugenol moiety” (2012)

Experiments:
Type in all cases: functional
[1] = system: Culex quinquefasciatus; experiment: Insecticidal activity against Culex quinquefasciatus assessed as contact mortality at 0.025 mg/ml at 24 hr by standard immersion method relative to control
[2] = system: Culex quinquefasciatus; experiment: Insecticidal activity against Culex quinquefasciatus assessed as contact mortality at 0.025 mg/ml at 12 hr by standard immersion method relative to control
[3] = system: Culex quinquefasciatus; experiment: Insecticidal activity against Culex quinquefasciatus assessed as contact mortality at 0.025 mg/ml at 4 hr by standard immersion method relative to control
[4] = system: Culex quinquefasciatus; experiment: Insecticidal activity against Culex quinquefasciatus assessed as contact mortality at 0.025 mg/ml at 1 hr by standard immersion method relative to control

Compound | mortality at 25 µg/mL [1] | mortality at 25 µg/mL [2] | mortality at 25 µg/mL [3] | mortality at 25 µg/mL [4]
C=CCC1=C(C)C(OC(=O)C2C(C=C(C)C)C2(C)C)CC1=O (centres undefined) [Allethrin] | 85% | 33% | 20% | 12%
C=CC(OC(=O)C(c1ccc(Cl)cc1)C(C)C)c1ccc(OCC)c(OC)c1 (centres undefined) | 96% | 42% | 23% | 10%
C=CC(OC(=O)C1C(C=C(C)C)C1(C)C)c1ccc(OC(C)=O)c(OC)c1 (centres undefined) | 88% | 34% | 25% | 10%
CC(C)C(C(=O)OC(C#N)c1cccc(Oc2ccccc2)c1)c1ccc(Cl)cc1 (centres undefined) [FENVALERATE] | 88% | 40% | 18% | 10%
C=CC(OC(=O)C(c1ccc(Cl)cc1)C(C)C)c1ccc(OC(C)=O)c(OC)c1 (centres undefined) | 85% | 47% | 25% | 14%
C=CC(OC(=O)C1C(C=C(C)C)C1(C)C)c1ccc(OCC)c(OC)c1 (centres undefined) | 97% | 40% | 22% | 15%
